Measured values taken from US9072778B2, “Treatment regimen for N-MYC, c-MYC, and L-MYC amplified and overexpressed tumors” (UNIVERSITY OF HAWAII, priority 2005, dated 2015).

Biological target: T1, ODC (Homo sapiens, UniProt P11926)
T1 construct: enzyme activities were measured in cell lysates; endogenous in cells
T1 sequence (P11926 1-461): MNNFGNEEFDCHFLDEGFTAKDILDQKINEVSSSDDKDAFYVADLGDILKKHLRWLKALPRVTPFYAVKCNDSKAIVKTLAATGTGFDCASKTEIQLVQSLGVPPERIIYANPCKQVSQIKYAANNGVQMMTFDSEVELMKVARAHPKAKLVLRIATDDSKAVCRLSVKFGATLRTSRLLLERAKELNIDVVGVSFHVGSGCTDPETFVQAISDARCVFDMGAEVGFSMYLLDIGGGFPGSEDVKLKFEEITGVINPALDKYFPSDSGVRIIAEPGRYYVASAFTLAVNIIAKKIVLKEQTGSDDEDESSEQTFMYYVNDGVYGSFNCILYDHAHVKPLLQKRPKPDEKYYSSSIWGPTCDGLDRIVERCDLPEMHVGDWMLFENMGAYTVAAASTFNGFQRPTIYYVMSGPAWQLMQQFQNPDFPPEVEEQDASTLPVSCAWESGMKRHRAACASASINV
Assay: ODC activity after preincubation of cell extracts with DFMO
Format: biochemical
Settings: extracts from untreated or DFMO-treated LAN-1 cells, 100 μM DFMO, 30 min at 37° C.
Procedure: ODC and AdoMetDC enzyme activities were determined using a standard assay known in the art. In brief, NB cells were washed twice with ice-cold PBS and harvested in 50 mM sodium phosphate buffer (pH 7.2), 0.1 mM EDTA, 2.5 mM DTT, supplemented with 1× protease inhibitor cocktail (Roche Molecular Biochemicals, Indianapolis, Ind.). […] Cells were lysed by three freeze/thaw cycles and cell lysates were prepared by centrifugation for 20 minutes at 14,000 rpm and 4° C. ODC activity was measured in a reaction mixture that contained 20 μM L-[1-^14C]ornithine (47.70 mCi/mmol; NEN Life Science Products, Boston, Mass.).

For `NCCC[C@](N)(C(=O)O)C(F)F` [DFMO, α-difluoromethylornithine], which “ODC activity after preincubation of extracts” value is on record?
Its value is “complete loss of ODC activity”.
